Experimental data published in patent US10294204B2, “Fluorescence compounds and preparation method thereof” (BioActs Co., Ltd., priority 2016, dated 2019).

Columns and labels:
Format in all cases: physicochemical
[1] = Test Example 4 (3),(4): relative quantum yield based on Rhodamine 6G; details: pH 7.4 1xPBS
Method: (§1) Based on Rhodamine 6G (TCI), relative quantum yield of Compound 20 and that of the reference fluorescent dye (Alexa Fluor 647 NHS ester) are determined. DMF is added to the two types of fluorescent dyes and Rhodamine 6G to 10 mg/mL to provide stock solutions. Next, pH 7.4 1×PBS is used to dilute the solutions to a concentration of 10 μM and absorption and fluorescence are determined. Herein, 1/2 dilution is carried out from a concentration of 10 μM and then absorption and fluorescence are determined 10 times totally up to the sample of 1/512× concentration. The determined values are introduced to the following Mathematical Formula 1 to analyze the relative quantum yield and the results are shown in the following Table 3 and FIG. 6.
[formula] • Q=Quantum Yield • I=Fluorophore • OD=Absorbance • SubscriptR=Rodamine 6G
as §1, with “18” for “20”, “555” for “647”, “to” for “to the following”, “yield. The” for “yield and the results are shown in the”, “4” for “3”, “7 show the relative quantum yield of each dye.” for “6.”

[2] = Test Example 4 (1),(2): fluorescence intensity of free dye versus reference fluorescent dye
Method: (§2) Compound 20 and a reference fluorescent dye (Alexa Fluor 647 NHS ester) are compared with each other in terms of fluorescence intensity. DMF is added to the two types of fluorescent dyes to provide stock solutions and each solution is adjusted to the same concentration of 10 mg/mL. Next, pH 7.4 10 mM phosphate buffered saline (hereinafter, 1×PBS) is used to dilute the solution to a concentration of 19.5 nM and fluorescence is determined under the setting of Excitation 560 nm. The fluorescence determination is carried out by using LS 55 Fluorescence spectrometer (Perkin Elmer).
as §2, with “18” for “20”, “555” for “647”, “552” for “560”

[3] = Test Example 2: fluorescence intensity as a function of concentration in PBS (plate reader), same absorption intensity; design: increment of fluorescence intensity compared to Compound 19: dose or concentration left out as unconfirmed
Method: To determine a change in optical properties when the compound of [Chemical Formula 1] disclosed herein is modified to allow labeling of a biomolecule, an N-succinimidyl group is introduced to each of Compound 9.7 and Compound 10 to obtain Compound 19 and Compound 20, respectively, in the same manner as described hereinabove. Then, fluorescence characteristics are compared at the same absorption wavelength intensity.
Each of Compound 19 and Compound 20 is added to 5 mL of PBS at a concentration of 10 mg/mL at room temperature to provide samples. Next, 1 mL of PBS is added to 2 mL of each sample and the intensity is measured as a function of absorption wavelength. After adjusting the concentration of a sample so that the absorption intensity (Abs at 650 nm) of Compound 19 may be the same as that of Compound 20 from the resultant data, the sample is diluted many times and the fluorescence thereof is determined by using a plate reader (Perkin Elmer).

[4] = Test Example 1: absorption and fluorescence intensity with and without the alkylcarboxyaminocyanuric chloride substituent
Method: According to [Chemical Formula 1] disclosed herein, compounds to which a substituent including cyanuric chloride bound with an aminoalkylcarboxylic acid is introduced are prepared and optical properties thereof are compared with each other. Glycine is used as an aminoalkylcarboxylic acid to obtain Compound 1 (Example 1.7) disclosed herein, and the optical properties thereof are compared with those of the compound (Example 1.3) including no alkylcarboxyamino cyanuric chloride substituent introduced thereto.
At the same concentration, the compounds of Example 1.7 and Example 1.3 are determined for absorption wavelength and intensity and the results are shown in FIG. 1A. […] To perform accurate comparison of fluorescence wavelength intensity, the concentration of each of the compounds of Example 1.7 and Example 1.3 is corrected so that they may have the same absorption intensity, and then the fluorescence wavelength and intensity of each compound are determined.

With “Alexa Fluor 647 NHS ester [reference compound]” the “Relative quantum yield (%)” value ([1]; 650 compound) was 7.79%.

With `CC1(CCCCCC(=O)NCCCNc2nc(Cl)nc(NCCCCCC(=O)ON3C(=O)CCC3=O)n2)C(/C=C/C=C2/N(CCCS(=O)(=O)O)c3ccc(S(=O)(=O)O)cc3C2(C)C)=[N+](CCCS(=O)(=O)O)c2ccc(S(=O)(=O)[O-])cc21` (stereo not drawn) [Compound 18] the “Relative quantum yield (%)” value ([1]; 552 compound) was 13.34% and the “fluorescence intensity versus reference fluorescent dye (Alexa Fluor 555 NHS ester)” value ([2]; 19.5 nM in 1xPBS pH 7.4, Excitation 552 nm, FIG. 5) was “relatively higher fluorescence intensity”.

With `CC1(CCCCCC(=O)ON2C(=O)CCC2=O)C(/C=C/C=C/C=C2/N(CCCS(=O)(=O)O)c3ccc(S(=O)(=O)O)cc3C2(C)C)=[N+](CCCS(=O)(=O)[O-])c2ccc(S(=O)(=O)O)cc21` (stereo not drawn) [Compound 19] the “Average fluorescence intensity (at 665 nm)” value ([3]; 3 nM in PBS) was 412.0, the “Average fluorescence intensity (at 665 nm)” value ([3]; 6 nM in PBS) was 810.7 and the “Average fluorescence intensity (at 665 nm)” value ([3]; 12 nM in PBS) was 1673.0. The “Average fluorescence intensity (at 665 nm)” value ([3]; 25 nM in PBS) was 3336.7, the “Average fluorescence intensity (at 665 nm)” value ([3]; 49 nM in PBS) was 6483.7 and the “Average fluorescence intensity (at 665 nm)” value ([3]; 98 nM in PBS) was 12523.0. For the same molecule, the “Average fluorescence intensity (at 665 nm)” value ([3]; 196 nM in PBS) was 24679.7, the “Average fluorescence intensity (at 665 nm)” value ([3]; 393 nM in PBS) was 48611.7 and the “Average fluorescence intensity (at 665 nm)” value ([3]; 785 nM in PBS) was 91308.7. For the same molecule, the “Average fluorescence intensity (at 665 nm)” value ([3]; 1570 nM in PBS) was 160778.3, the “Average fluorescence intensity (at 665 nm)” value ([3]; 3140 nM in PBS) was 240494.7 and the “Average fluorescence intensity (at 665 nm)” value ([3]; 6280 nM in PBS) was 308345.7.

With “Alexa Fluor 555 NHS ester [reference compound]” the “Relative quantum yield (%)” value ([1]; 552 compound) was 5.64%.

With `CC1(CCCCCC(=O)NCCCNc2nc(Cl)nc(NCCCCCC(=O)ON3C(=O)CCC3=O)n2)C(/C=C/C=C/C=C2/N(CCCS(=O)(=O)O)c3ccc(S(=O)(=O)O)cc3C2(C)C)=[N+](CCCS(=O)(=O)[O-])c2ccc(S(=O)(=O)O)cc21` (stereo not drawn) [Compound 20] the “Relative quantum yield (%)” value ([1]; 650 compound) was 11.70%, the “fluorescence intensity versus reference fluorescent dye (Alexa Fluor 647 NHS ester)” value ([2]; 19.5 nM in 1xPBS pH 7.4, Excitation 560 nm, FIG. 4) was “relatively higher fluorescence intensity” and the “Average fluorescence intensity (at 665 nm)” value ([3]; 3 nM in PBS) was 313.3. The “Average fluorescence intensity (at 665 nm)” value ([3]; 6 nM in PBS) was 721.3, the “Average fluorescence intensity (at 665 nm)” value ([3]; 12 nM in PBS) was 1454.7 and the “Average fluorescence intensity (at 665 nm)” value ([3]; 25 nM in PBS) was 2994.3. The “Average fluorescence intensity (at 665 nm)” value ([3]; 49 nM in PBS) was 6693.3, the “Average fluorescence intensity (at 665 nm)” value ([3]; 98 nM in PBS) was 13859.7 and the “Average fluorescence intensity (at 665 nm)” value ([3]; 196 nM in PBS) was 29396.3. For the same molecule, the “Average fluorescence intensity (at 665 nm)” value ([3]; 393 nM in PBS) was 59756.7, the “Average fluorescence intensity (at 665 nm)” value ([3]; 785 nM in PBS) was 118049.0 and the “Average fluorescence intensity (at 665 nm)” value ([3]; 1570 nM in PBS) was 209850.3. The “Average fluorescence intensity (at 665 nm)” value ([3]; 3140 nM in PBS) was 321865.0, the “Average fluorescence intensity (at 665 nm)” value ([3]; 6280 nM in PBS) was 418428.3 and the “increment of fluorescence intensity compared to Compound 19” value ([3]; FIG. 2) was “about 40%”.

For `CC[N+]1=C(/C=C/C=C2/N(CCCCCC(=O)O)c3ccc(S(=O)(=O)O)cc3C2(C)C)C(C)(C)c2cc(S(=O)(=O)[O-])ccc21` [Example 1.3], the absorption wavelength intensity ([4]; same concentration, Example 1.7 versus Example 1.3, FIG. 1A) was “slightly higher”.

For `CC[N+]1=C(/C=C/C=C2/N(CCCCCC(=O)NNc3nc(Cl)nc(NCC(=O)O)n3)c3ccc(S(=O)(=O)O)cc3C2(C)C)C(C)(C)c2cc(S(=O)(=O)[O-])ccc21` [Compound 1], the “intensity of fluorescence wavelength relative to Example 1.3” value ([4]; concentration corrected to same absorption intensity, FIG. 1B) was “approximately two times higher”.
